What was measured:
[1] = target: Regulator of G-protein signaling 19 (Homo sapiens, UniProt P49795); assay: Inhibitory Assay: FCPIA Characterization of RGS Inhibitory Activity: CCG-50014 (FIG. 1) was originally identified as a potential inhibitor of RGS8 and RGS16 in a polyplex high throughput screen to identify inhibitors of the RGS-Gα interaction [4]. This activity was confirmed by analyzing the effect of CCG-50014 on several different RGS proteins with freshly reordered compound using multiplexed …
Chain of Regulator of G-protein signaling 19 (P49795 whole entry, looked up, stated change not applied): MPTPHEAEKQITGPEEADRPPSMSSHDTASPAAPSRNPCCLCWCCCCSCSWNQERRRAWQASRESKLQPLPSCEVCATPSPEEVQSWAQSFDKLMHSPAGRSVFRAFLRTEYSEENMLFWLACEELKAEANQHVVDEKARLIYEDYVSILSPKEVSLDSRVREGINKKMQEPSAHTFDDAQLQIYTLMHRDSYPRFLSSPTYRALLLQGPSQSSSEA

[2] = target: Regulator of G-protein signaling 16 (Homo sapiens, UniProt O15492); assay: as above
Chain of Regulator of G-protein signaling 16 (O15492 whole entry, looked up, change not shown): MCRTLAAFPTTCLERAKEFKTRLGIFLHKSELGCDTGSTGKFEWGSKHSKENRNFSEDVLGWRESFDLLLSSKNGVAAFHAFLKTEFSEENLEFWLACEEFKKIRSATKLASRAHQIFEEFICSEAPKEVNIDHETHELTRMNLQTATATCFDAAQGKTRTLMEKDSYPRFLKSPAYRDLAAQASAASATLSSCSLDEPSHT

## Cc1ccc(-n2sc(=O)n(Cc3ccc(F)cc3)c2=O)cc1
[1]
  IC50: 0.12 µM
[2]
  IC50: 3.5 µM

From ChEMBL document CHEMBL3639039, “Small molecule inhibitors of RGS proteins” (2014)
